Measured values from patent EP4722203A1, “3,4-DIHYDROPHTHALAZIN-1(2H)-ONE DERIVATIVE, AND PREPARATION METHOD THEREFOR AND USE THEREOF” (Academy of Military Medical Sciences, priority 2023, dated 2024).

Tested on: human multiple myeloma NCI-H929 xenograft tumors
Assay: In vivo activity of combination therapy with bortezomib or tazemetostat against NCI-H929 transplanted tumor
Set-up: species or system NOD/SCID mice
Conditions: I-8 3 mg/kg QD
Procedure: In this example, the human multiple myeloma NCI-H929 cell line was selected as the cell model to determine the inhibitory effects of compounds, bortezomib (Bort), and tazemetostat (Taze), as single drugs and in combination, on the growth of NOD/SCID mouse transplanted tumors of NCI-H929 tumor cells. The evaluation methods and results are described below.
Human multiple myeloma NCI-H929 cells were routinely cultured in RPMI1640 containing 10% fetal bovine serum at 37°C in a 5% CO2 incubator. After three passages in vitro, when the cells reached over 80% confluence and the required confluence rate, the cells were digested and harvested. After washing with PBS, the cells were counted and the cell concentration was adjusted to approximately 5 × 10^7 cells/mL. The cells were then placed in 4 mL centrifuge tubes on ice for later use.
Female NOD/SCID mice aged 4-5 weeks were selected and subcutaneously inoculated with NCI-H929 cells ectopically. The mice were held in a lateral position, the forelimb axilla was disinfected with 75% alcohol, and 100 µL of the cell suspension was injected subcutaneously into the axilla using a 1 mL syringe ([…]/100 µL).
After the tumors grew to 90-150 mm^3, the animals were randomly divided into groups, 8 mice in each group, and administered according to different administration methods as follows: • Model control group: Administered with the same volume of Vehicle (DMSO: 0.5% sodium carboxymethyl cellulose: distilled water = 1:1:8) daily by gavage; • Test group 1: administered with I-8 solution at 3 mg/kg (mouse body weight) daily by gavage; • Test group 2: administered with bortezomib (Bort) solution at 1 mg/kg (mouse body weight) twice weekly by gavage; • Test group 3: administered with tazemetostat solution at 100 mg/kg (mouse body weight) daily by gavage; • Test group 4: administered with I-8 at 3 mg/kg (mouse body weight) daily by gavage and bortezomib (Bort) solution at 1 mg/kg (mouse body weight) twice weekly by gavage; • Test group 5: administered with I-8 at 3 mg/kg (mouse body weight) daily by gavage and tazemetostat (Taze) solution at 100 mg/kg (mouse body weight) daily by gavage;
The route of administration was oral gavage, and the administration frequency was once daily, for 10 consecutive days. The first day of administration was defined as Day 1 of the experiment. Tumor volume changes in mice were measured and recorded every two days. Tumor volume was measured using a vernier caliper, in which the major axis (a) and minor axis (b) of the tumor were measured, and the tumor volume was calculated as tumor volume V (mm^3) = a x b^2/2. After the experiment, the mice were dissected and the tumor weight was measured. The data were entered and statistically analyzed using GraphPad Prism 6 software. The data are expressed as mean ± SEM (Standard Error of Mean), and one-way ANOVA was used. P ≤ 0.05 was considered statistically significant.

## CN1Cc2c(NCc3ccc(CN4CCN(c5ccc(C#N)c(F)c5)CC4)cc3)cccc2C(=O)N1C1CCC(=O)NC1=O (stereo not shown) [I-8]
Day 10, Bort 1 mg/kg BIW, Taze 100 mg/kg QD, combinations given as + Bort 3 mg/kg BIW / + Taze 3 mg/kg QD
  Average volume (mm^3) (Day 10): 498.6 mm^3
Bort 1 mg/kg BIW, Taze 100 mg/kg QD, combinations given as + Bort 3 mg/kg BIW / + Taze 3 mg/kg QD
  Tumor inhibition rate TGI (%): 77.24%
Bortezomib 1 mg/kg BIW, tazemetostat 100 mg/kg QD, alone or combined
  growth of NCI-H929 transplanted tumors (in words): effectively inhibits the growth
baseline, Bort 1 mg/kg BIW, Taze 100 mg/kg QD, combinations given as + Bort 3 mg/kg BIW / + Taze 3 mg/kg QD
  Initial volume (mm^3): 120.7 mm^3
